In ChEMBL document CHEMBL4507276 (2021):

Legend:
Settings in all cases: Compound concentration 1000.0 nM
[1] = target: Ribosomal protein S6 kinase alpha-2 (Homo sapiens) (UniProt Q15349)
[2] = target: Mitogen-activated protein kinase kinase kinase kinase 4 (Homo sapiens) (UniProt O95819)
[3] = target: Dual specificity mitogen-activated protein kinase kinase 2 (Homo sapiens) (UniProt P36507)
[4] = target: T1, Serine/threonine-protein kinase TAO3 (Homo sapiens) (UniProt Q9H2K8)
T1 sequence (whole entry): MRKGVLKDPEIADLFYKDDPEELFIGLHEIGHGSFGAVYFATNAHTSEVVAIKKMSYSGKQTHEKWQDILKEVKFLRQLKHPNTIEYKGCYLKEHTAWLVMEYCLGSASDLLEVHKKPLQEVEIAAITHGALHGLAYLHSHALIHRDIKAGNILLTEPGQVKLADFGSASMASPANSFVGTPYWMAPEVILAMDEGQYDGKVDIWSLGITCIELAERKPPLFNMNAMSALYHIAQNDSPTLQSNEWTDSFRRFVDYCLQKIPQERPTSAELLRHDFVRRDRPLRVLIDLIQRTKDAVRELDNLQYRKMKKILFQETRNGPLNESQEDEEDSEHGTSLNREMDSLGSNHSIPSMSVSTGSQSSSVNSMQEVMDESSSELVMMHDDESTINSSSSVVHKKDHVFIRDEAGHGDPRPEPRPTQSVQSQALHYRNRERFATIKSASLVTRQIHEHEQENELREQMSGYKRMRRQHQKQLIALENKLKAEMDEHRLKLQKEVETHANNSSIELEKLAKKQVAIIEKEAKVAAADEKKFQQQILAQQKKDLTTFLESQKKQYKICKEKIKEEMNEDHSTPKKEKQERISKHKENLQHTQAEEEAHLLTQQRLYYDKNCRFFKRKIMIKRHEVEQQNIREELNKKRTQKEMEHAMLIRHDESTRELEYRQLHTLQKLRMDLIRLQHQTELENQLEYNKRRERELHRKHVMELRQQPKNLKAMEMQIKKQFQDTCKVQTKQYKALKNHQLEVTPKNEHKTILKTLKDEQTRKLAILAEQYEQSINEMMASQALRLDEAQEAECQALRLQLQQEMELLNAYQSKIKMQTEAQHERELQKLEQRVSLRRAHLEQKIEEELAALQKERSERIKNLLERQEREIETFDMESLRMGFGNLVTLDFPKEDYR

[5] = target: Cyclin-dependent kinase 18 (Homo sapiens) (UniProt Q07002)
[6] = target: T2, Tyrosine-protein kinase ZAP-70 (Homo sapiens) (UniProt P43403)
T2 sequence (whole entry): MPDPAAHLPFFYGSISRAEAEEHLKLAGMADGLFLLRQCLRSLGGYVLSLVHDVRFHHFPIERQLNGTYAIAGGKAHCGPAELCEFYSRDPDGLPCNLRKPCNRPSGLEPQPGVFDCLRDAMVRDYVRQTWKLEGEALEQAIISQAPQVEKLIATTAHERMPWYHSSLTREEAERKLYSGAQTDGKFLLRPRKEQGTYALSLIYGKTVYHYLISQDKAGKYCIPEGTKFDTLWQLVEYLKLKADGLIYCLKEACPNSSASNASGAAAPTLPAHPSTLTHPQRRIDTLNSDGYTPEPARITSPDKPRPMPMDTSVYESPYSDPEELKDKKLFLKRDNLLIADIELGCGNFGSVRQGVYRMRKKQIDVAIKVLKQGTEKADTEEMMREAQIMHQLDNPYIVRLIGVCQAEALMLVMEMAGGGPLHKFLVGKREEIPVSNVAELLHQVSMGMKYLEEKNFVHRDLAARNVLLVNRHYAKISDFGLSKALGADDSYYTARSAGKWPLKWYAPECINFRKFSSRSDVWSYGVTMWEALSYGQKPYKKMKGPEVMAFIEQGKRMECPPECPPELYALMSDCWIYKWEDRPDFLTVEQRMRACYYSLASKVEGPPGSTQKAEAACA

[7] = target: T3, Activin receptor type-1B (Homo sapiens) (UniProt P36896)
T3 sequence (whole entry): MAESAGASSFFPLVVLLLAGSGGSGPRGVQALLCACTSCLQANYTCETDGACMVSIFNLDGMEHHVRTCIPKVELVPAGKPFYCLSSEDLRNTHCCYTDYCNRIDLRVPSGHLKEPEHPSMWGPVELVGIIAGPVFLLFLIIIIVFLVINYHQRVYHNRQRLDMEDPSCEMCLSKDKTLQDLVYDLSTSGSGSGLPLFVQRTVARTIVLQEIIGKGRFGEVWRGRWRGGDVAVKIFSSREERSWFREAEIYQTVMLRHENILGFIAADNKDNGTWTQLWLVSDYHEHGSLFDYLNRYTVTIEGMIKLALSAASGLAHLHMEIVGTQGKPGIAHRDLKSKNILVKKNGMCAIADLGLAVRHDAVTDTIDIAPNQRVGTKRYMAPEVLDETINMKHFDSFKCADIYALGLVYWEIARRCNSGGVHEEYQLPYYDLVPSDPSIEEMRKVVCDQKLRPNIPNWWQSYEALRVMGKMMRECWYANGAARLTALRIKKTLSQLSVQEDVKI

[8] = target: Mitogen-activated protein kinase kinase kinase 9 (Homo sapiens) (UniProt P80192)
[9] = target: Serine/threonine-protein kinase ICK (Homo sapiens) (UniProt Q9UPZ9)
[10] = target: Activin receptor type-1-like (Homo sapiens) (UniProt P37023)
[11] = target: SNF-related serine/threonine-protein kinase (Homo sapiens) (UniProt Q9NRH2)
[12] = target: Calcium-dependent protein kinase 1 (Plasmodium falciparum) (UniProt P62344)
[13] = target: Calcium/calmodulin-dependent protein kinase type 1D (Homo sapiens) (UniProt Q8IU85)
[14] = target: Serine/threonine-protein kinase 38-like (Homo sapiens) (UniProt Q9Y2H1)
[15] = target: Tyrosine-protein kinase JAK1 (Homo sapiens) (UniProt P23458)
[16] = target: Receptor-type tyrosine-protein kinase FLT3 (Homo sapiens) (UniProt P36888)
[17] = target: TGF-beta receptor type-2 (Homo sapiens) (UniProt P37173)
[18] = target: Ribosomal protein S6 kinase alpha-3 (Homo sapiens) (UniProt P51812)

Measured: residual activity

Serine/threonine-protein kinase ICK (Homo sapiens), sequence (Q9UPZ9 whole entry): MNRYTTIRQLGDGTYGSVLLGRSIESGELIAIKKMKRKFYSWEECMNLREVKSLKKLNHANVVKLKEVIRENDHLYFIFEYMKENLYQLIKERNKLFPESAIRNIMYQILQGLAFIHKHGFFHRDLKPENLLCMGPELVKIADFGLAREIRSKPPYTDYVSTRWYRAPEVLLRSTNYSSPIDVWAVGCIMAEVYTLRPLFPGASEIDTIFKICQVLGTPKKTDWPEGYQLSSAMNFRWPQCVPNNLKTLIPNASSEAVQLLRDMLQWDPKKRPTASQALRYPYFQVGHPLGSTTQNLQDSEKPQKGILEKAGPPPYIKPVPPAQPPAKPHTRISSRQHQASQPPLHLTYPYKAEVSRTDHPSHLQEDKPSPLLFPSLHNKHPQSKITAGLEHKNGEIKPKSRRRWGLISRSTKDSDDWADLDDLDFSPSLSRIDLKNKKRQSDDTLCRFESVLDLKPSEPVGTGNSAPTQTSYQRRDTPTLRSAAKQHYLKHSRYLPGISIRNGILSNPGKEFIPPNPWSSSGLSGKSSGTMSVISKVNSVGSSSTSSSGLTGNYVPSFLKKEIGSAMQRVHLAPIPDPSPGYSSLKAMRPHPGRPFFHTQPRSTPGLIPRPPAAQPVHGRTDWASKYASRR
Dual specificity mitogen-activated protein kinase kinase 2 (Homo sapiens), sequence (P36507 whole entry): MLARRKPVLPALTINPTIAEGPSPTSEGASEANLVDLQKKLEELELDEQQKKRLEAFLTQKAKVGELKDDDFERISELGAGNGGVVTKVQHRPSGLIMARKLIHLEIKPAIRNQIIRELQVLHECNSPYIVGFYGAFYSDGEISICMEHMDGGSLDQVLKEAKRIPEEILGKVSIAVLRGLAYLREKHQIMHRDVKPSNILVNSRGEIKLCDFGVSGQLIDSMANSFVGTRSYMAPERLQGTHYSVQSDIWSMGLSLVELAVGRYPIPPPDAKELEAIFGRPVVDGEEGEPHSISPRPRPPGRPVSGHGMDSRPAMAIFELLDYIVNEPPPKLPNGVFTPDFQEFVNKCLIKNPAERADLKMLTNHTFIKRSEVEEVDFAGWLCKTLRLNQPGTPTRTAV
Receptor-type tyrosine-protein kinase FLT3 (Homo sapiens), sequence (P36888 whole entry): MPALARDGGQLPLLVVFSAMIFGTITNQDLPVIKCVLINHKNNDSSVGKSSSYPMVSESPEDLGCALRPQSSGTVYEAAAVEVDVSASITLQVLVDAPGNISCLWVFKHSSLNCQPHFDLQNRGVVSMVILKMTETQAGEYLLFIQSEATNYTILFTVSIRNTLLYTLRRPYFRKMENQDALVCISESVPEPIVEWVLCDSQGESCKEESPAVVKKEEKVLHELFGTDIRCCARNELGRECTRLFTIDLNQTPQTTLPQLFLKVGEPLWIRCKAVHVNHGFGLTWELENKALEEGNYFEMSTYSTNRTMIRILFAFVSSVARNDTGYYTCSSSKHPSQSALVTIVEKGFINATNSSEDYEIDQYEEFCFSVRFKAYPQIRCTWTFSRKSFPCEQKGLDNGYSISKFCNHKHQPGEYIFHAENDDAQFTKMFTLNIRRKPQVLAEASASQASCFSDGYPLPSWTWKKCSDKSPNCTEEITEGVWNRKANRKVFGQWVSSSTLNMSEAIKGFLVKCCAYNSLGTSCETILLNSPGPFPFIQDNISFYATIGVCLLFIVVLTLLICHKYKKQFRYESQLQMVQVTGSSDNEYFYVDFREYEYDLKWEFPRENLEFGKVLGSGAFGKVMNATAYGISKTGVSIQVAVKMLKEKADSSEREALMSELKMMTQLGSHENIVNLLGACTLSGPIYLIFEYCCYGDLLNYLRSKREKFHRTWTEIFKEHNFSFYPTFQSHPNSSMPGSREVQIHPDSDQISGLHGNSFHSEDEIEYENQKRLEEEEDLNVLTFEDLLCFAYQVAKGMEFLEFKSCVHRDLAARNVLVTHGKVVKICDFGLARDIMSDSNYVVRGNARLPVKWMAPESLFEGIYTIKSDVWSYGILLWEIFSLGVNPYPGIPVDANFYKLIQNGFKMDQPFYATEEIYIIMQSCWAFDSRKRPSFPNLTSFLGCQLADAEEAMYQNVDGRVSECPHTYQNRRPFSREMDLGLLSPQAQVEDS
Mitogen-activated protein kinase kinase kinase 9 (Homo sapiens), sequence (P80192 whole entry, looked up): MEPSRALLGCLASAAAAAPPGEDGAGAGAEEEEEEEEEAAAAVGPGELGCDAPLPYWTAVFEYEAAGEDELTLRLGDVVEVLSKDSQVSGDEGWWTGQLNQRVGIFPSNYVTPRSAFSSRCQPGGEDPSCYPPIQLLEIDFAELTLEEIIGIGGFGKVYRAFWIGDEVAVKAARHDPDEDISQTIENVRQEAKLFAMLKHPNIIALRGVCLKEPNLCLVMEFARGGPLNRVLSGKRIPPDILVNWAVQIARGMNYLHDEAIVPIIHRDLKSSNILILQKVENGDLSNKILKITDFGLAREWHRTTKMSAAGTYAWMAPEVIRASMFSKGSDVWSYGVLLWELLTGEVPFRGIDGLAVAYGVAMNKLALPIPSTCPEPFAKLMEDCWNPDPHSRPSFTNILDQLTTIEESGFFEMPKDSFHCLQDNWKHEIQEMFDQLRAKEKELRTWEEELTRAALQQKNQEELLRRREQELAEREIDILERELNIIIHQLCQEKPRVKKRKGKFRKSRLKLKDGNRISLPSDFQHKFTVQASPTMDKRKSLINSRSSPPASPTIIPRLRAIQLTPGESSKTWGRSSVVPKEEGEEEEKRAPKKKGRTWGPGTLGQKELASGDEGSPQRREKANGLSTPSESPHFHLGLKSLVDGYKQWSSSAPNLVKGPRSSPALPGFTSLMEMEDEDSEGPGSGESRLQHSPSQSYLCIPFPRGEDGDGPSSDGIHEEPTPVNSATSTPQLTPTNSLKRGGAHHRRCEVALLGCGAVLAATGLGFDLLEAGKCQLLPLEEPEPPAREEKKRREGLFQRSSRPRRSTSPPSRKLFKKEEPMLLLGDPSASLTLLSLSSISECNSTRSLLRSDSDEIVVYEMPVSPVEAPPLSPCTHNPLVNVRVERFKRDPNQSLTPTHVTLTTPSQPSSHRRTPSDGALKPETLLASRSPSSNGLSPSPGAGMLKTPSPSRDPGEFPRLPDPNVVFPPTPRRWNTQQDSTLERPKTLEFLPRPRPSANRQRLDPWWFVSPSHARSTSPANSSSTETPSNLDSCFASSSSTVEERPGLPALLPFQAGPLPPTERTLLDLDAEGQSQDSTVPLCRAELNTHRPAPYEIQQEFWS
Mitogen-activated protein kinase kinase kinase kinase 4 (Homo sapiens), sequence (O95819 2-1239 limits assumed): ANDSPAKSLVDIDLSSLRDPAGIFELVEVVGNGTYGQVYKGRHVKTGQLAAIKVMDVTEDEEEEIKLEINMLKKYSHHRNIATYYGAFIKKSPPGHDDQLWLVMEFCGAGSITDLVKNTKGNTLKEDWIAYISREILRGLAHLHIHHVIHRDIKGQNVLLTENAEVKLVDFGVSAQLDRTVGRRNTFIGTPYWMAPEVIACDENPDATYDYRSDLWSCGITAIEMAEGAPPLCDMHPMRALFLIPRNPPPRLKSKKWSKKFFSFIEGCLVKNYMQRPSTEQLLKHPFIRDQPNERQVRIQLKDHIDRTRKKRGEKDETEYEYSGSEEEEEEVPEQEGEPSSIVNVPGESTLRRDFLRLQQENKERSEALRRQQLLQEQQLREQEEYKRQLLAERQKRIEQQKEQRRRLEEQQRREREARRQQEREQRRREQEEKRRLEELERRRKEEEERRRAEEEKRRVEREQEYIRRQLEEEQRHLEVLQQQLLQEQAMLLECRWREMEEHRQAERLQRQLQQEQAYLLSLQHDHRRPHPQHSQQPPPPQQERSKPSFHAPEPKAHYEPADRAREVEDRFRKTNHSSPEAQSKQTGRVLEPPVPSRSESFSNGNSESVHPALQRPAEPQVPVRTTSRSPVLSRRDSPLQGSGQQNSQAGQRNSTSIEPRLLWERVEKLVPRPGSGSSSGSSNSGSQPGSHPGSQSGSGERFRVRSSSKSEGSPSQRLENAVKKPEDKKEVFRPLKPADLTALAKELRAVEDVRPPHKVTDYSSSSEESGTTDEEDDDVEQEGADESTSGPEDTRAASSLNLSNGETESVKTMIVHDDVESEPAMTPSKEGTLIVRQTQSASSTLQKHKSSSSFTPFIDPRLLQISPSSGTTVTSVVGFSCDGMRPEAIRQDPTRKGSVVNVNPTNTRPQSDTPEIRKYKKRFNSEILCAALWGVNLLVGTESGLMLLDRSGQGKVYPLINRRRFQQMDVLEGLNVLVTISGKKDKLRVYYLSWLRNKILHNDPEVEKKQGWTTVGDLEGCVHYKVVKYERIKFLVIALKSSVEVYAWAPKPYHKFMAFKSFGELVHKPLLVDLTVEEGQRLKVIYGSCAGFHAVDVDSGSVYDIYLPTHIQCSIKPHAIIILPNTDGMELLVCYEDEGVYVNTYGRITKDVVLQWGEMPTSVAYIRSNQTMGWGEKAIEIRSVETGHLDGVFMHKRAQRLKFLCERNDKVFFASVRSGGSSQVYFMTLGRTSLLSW
Activin receptor type-1-like (Homo sapiens), sequence (P37023 whole entry): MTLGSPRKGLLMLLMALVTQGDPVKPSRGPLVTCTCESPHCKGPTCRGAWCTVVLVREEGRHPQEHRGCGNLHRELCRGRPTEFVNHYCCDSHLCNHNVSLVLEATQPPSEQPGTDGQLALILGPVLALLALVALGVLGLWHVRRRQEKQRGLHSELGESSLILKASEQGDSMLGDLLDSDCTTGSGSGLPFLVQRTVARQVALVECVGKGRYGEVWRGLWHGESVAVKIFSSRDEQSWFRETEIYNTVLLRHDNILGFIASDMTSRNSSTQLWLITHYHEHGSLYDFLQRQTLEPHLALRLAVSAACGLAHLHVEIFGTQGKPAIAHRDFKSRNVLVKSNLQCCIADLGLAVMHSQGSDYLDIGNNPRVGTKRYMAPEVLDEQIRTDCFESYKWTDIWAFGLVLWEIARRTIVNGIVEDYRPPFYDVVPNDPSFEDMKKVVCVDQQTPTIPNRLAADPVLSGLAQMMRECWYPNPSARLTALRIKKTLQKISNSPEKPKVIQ

CN(C)C(=O)Cn1cc(-c2nc(C3(c4ccc(-c5cnc(N)nc5)cc4)CC3)no2)cn1 [BI 0153]
inactive: [1] 100% | [2] 66% | [3] 80% | [4] 67% | [5] 83% | [6] 94% | [7] 84% | [8] 91% | [9] 76% | [10] 86% | [11] 100% | [12] 82% | [13] 100% | [14] 81% | [15] 76% | [16] 81% | [17] 100% | [18] 85%

CN(C)C(=O)Cn1cc(-c2nc([C@@](C)(c3ccc(-c4cnc(N)nc4)cc3)C3CC3)no2)cn1 [BI 665915]
inactive: [1] 100% | [2] 90% | [3] 86% | [4] 89% | [5] 100% | [6] 100% | [7] 89% | [8] 100% | [9] 100% | [10] 84% | [11] 89% | [12] 58% | [13] 100% | [14] 91% | [15] 100% | [16] 82% | [17] 88% | [18] 100%
